Test results from PMC13091788 (NPJ Aging, 2026).
Where a name gives a salt, the structure may show the parent alone. Values belong to the compound of their own block, whether it stands above or below them.

Legend:
rodents = conditions: high doses (up to 100 mg/kg/day), intraperitoneal or oral gavage; cited from earlier work
C2C12 cells = assay: Quantification of mitochondrial DNA (mtDNA/nDNA ratio); type: cell-based, mouse; conditions: C2C12, 10 μM
Experimental: (§1) Murine myoblast C2C12 cells were used for various cellular experiments in this study. Two different sources of C2C12 cells were used depending on the experiment: C2C12 cells obtained from RIKEN BRC (RCB0987) were used for gene expression, mtDNA quantification, and mitochondrial morphology analysis; C2C12 cells from ATCC (CRL-1772) were used for OCR analysis. Cells were cultured in Dulbecco’s Modified Eagle Medium (DMEM; Sigma-Aldrich or Nacalai Tesque), supplemented with 10% FBS and 1% penicillin–streptomycin. Cells were maintained in a humidified incubator at 37°C with 5% CO2.
To generate mMITOL-knockout C2C12 cells, CRISPR-Cas9 vectors were constructed. Single-guide RNAs (sgRNAs) targeting the mouse MITOL gene were designed using the online tool CRISPOR (http://crispor.org). The oligonucleotide pair corresponding to the mMITOL guide RNA (gRNA sequence, 5′-[…]-3′) was annealed and ligated into the PX459 vector (48139, Addgene). C2C12 cells were transfected using Lipofectamine 3000 (Thermo Fisher Scientific), and knockout clones were selected by serial dilution.
To assess mitochondrial DNA (mtDNA) content, the mtDNA/nuclear DNA (nDNA) ratio was determined by extracting DNA from C2C12 cells using the NucleoSpin Tissue Kit (Takara Bio), followed by real-time quantitative PCR analysis with specific primer sets for mtDNA (16S rRNA or ND1) and nDNA (Hexokinase 2; HK2) (Supplementary Table 2). Real-time quantitative PCR was performed using TB Green Premix Ex Taq II (Takara Bio) and a Thermal Cycler Dice Real-Time System (Takara Bio). The analysis of mtDNA/nDNA ratios was conducted using the ΔΔCt method as previously described.

[1] = system: MITOL and Tom20 mRNA in C2C12 cells; assay: qRT-PCR analysis of C2C12 cells; type: cell-based, mouse; conditions: C2C12, 5 μM or 10 μM
Experimental: as §1
(§2) For cellular experiments, berberine or quinoid-type berberrubine (Q-BRB) was dissolved in DMSO, and berberrubine acetic acid adduct (AcA-BRB) was dissolved in distilled H2O. Each compound was diluted in culture medium to the indicated final concentrations.
Total RNA was extracted from C2C12 cells using an RNA extraction kit (RNeasy Mini Kit, Qiagen). After washing with PBS, cells were collected by trypsinization and centrifugation at 500 × g for 5 min, and the pellet was lysed according to the manufacturer’s instructions. The extracted RNA was reverse-transcribed into cDNA using a reverse transcription kit (ReverTra Ace, TOYOBO). Quantitative real-time PCR was performed using a qPCR master mix (KAPA SYBR FAST qPCR Master Mix (2X) Kit, KAPABIOSYSTEMS) and a thermal cycler (StepOnePlus, Applied Biosystems). Gene expression levels were normalized to GAPDH. Primer sets used for qRT-PCR are listed in Supplementary Table 1.

[2] = system: MITOL and mitochondrial proteins in C2C12 myoblasts; assay: Western blot of mitochondrial proteins in C2C12 myoblasts; type: cell-based, mouse; conditions: 48 h
Experimental: as §1, §2
Proteins in sample buffer were separated by SDS-PAGE and transferred to Immobilon-P PVDF membranes (IPVH00010, Millipore). Blots were probed with the indicated antibodies, and protein bands on the blot were visualized using Chemi-Lumi One L (07880-70, Nacalai Tesque) or Immobilon Western Chemiluminescent HRP Substrate (WBKLS0500, Millipore). Band images were captured using a LuminoGraph I imager (WSE-6100, ATTO). Relative band intensities were quantified using Fiji/ImageJ software. Unprocessed western blot images corresponding to the data presented in the main and supplementary figures are provided in Supplementary Figures 11–16.

[3] = Water solubility, roughly examined; type: physicochemical; conditions: roughly examined
Experimental: Finally, we compared the water solubility of the three berberrubine forms. The solubility of three compounds, the reddish-black solid (quinoid-type berberrubine), the reddish-brown solid (berberrubine acetic acid salt), and the yellow solid (berberrubine acetic acid adduct), in water was roughly examined. […] On the other hand, the reddish-brown solid dissolved in about 30 mg in 1 mL of water.

PAMPA assay = type: in vitro ADME; conditions: read-out: permeability of reference compounds
Experimental: To determine the passive membrane diffusion rates, Corning Gentest Pre-coated PAMPA Plate System was used. The acceptor plate was prepared by adding 200 μL of 0.1 M phosphate buffer (pH 4.5–8.6) supplemented with 5% DMSO to each well, and then 300 μL of 30 μM compounds in 0.1 M phosphate buffer (pH 4.5–8.6) with 5% DMSO were added to the donor wells. The acceptor plate was then placed on top of the donor plate and incubated at 37 °C for 4 h without agitation. After the incubation, the plates were separated and the solutions from each well of both the acceptor plate and the donor plate were transferred to 96-well plates and mixed with acetonitrile. The final concentrations of compounds in both donor and acceptor wells, as well as the concentrations of the initial donor solutions, were analyzed using liquid chromatography-tandem mass spectrometry (LC-MS/MS). The permeability of the compounds was calculated as described in a previous study. […] Two technical replicates were performed.

- solubility [3]: ≥ 30 mg/mL
SMILES: COc1ccc2cc3n(cc-2c1=O)CCc1cc2c(cc1-3)OCO2 [berberrubine acetic acid salt]

- Papp at 4 h (PAMPA assay): 24 ×10⁻⁶ cm/s
SMILES: Cc1cc(=O)n(-c2ccccc2)n1C [antipyrine, reference compound]

- Papp at 4 h (PAMPA assay): 0.084 ×10⁻⁶ cm/s
SMILES: O=C(O)c1cc(/N=N/c2ccc(S(=O)(=O)Nc3ccccn3)cc2)ccc1O [sulfasalazine, reference compound]

Further lines, the compound ahead of its results:

SMILES: COc1ccc2cc3[n+](cc2c1O)CCc1cc2c(cc1-3)OCO2 [berberrubine chloride]
- hepatic toxicity in rodents (rodents): hepatic toxicity
- renal toxicity in rodents (rodents): renal toxicity

SMILES: COc1ccc2cc3[n+](cc2c1OC)CCc1cc2c(cc1-3)OCO2 [berberine, reference compound]
- mitochondrial abundance (mtDNA 16S rRNA or ND1 / nuclear HK2) (C2C12 cells): did not induce MITOL expression or increase mitochondrial content
- mRNA levels of MITOL and Tom20 [1]: not observed
- levels of Tom20, Mfn2, HSP60 and ATP5a proteins ([2]; C2C12, 5 μM or 10 μM): not observed
- MITOL expression (western blot) ([2]; C2C12, 10 μM, berberrubine used as quinoid-type form): did not increase

SMILES: COCCc1ccc(OCC(O)CNC(C)C)cc1 (stereo not shown) [metoprolol, reference compound]
- Papp at 4 h (PAMPA assay): 3 ×10⁻⁶ cm/s
